Laboratory results as given in patent US20250235413A1, “MODIFIED FORMS OF AMBROXOL FOR THERAPEUTIC USE” (Zywie, LLC, priority 2021, published 2025).

Experiments:
[1] = Metabolic stability in human liver microsomes; format: in vitro ADME; settings: human liver microsomes 1 mg/mL protein, 1 μM compound, 37° C., NADPH-regenerating system; for half-life at 1 μM: 0-120 min, read-out: In vitro elimination half-life t1/2; for microsomal CLint at 1 μM: read-out: In vitro intrinsic clearance CLint-microsomes
Description: Study design—Test compounds (ambroxol and deuterated analogs) were dissolved in dimethylsulfoxide (DMSO) to prepare 1 mM stock solutions. The compounds were added to preparations of human liver microsomes (200 μL per incubation at a 1 mg/mL protein concentration) such that the final compound concentration was 1 μM. The samples were incubated at 37° C. in the presence of a reduced nicotinamide adenine dinucleotide phosphate (NADPH)-regenerating system (NADP, 1 mM, pH 7.4; glucose-6-phosphate, 5 mM, pH 7.4; glucose-6-phosphate dehydrogenase, 1 unit/mL)). A positive control (midazolam, 1 μM, 0.1 mg/mL protein) was incubated concurrently to ensure the microsome preparation was performing as expected. Samples were obtained at t=0, 30, 60, and 120 min and quenched by addition of acetonitrile.
Quenched samples were analyzed by liquid chromatography coupled to tandem mass spectrometry detection (LC/MS-MS). The concentration of the test compounds at each time point were converted to percent remaining relative to the concentration of the compound at time t=0 (which serves as the 100% value). All data points were included in data processing. The rate constant of elimination (kel, min^−1) of each test compound was determined from the time course of disappearance of the parent compound based on fitting the experimental data to a single exponential decay formula (At=Aoe^−kelt, where At is the % remaining at time t, Ao is 100%, kel is the elimination rate constant, and t is time). The in vitro half-life (t1/2) was determined from kel based on the formula: t1/2=ln(2)/kel. The rate constant of elimination was also used to calculate the in vitro intrinsic clearance CLint-microsomes (μL/min/mg protein).

male BDF1 mice = test: Lifespan study in mice fed compound in chow; format: in vivo, mouse; settings: 50 mg/kg daily as chow supplement, vs control (FIG. 3)
Description: Group 1 represents control animals that were not administered ambroxol; and Group 2 represents animals administered 50 mg/kg (body weight) of ambroxol daily as a chow supplement, starting at 2 months of age.
Weaned male BDF1 mice raised from pups, housed 1-4 animals per cage and fed Teklad 7013 NIH-31 rodent chow and water ad libitum, at 2 months of age, are divided into two roughly equal groups of 22-25 animals. One group continues to be fed the Teklad chow as before (control); the other group is switched to Teklad chow formulated with compound 2 at 300 mg per kg of chow. This formulation was designed, based on the average ad libitum chow consumption of an adult male BDF1 mouse, to deliver 50 mg/kg/day (based on body mass) to each mouse in the treated group. Mice are maintained on this diet until they die naturally or until they reach 16 months of age, at which time the experiment ends. During the course of the experiment, all mice are periodically removed from their cages and handled in the course of subjecting them to various sensorimotor, cognitive, and/or behavioral tests.
Group 1 represents control animals that were not administered ambroxol; Group 2 represents animals administered 50 mg/kg of ambroxol daily as a chow supplement, starting at 2 months of age.

mice = test: Cognitive acuity test (novel place recognition) in mice at 7 months; format: in vivo, mouse
Source text: This is a cognitive test to measure short-term working memory, involving recognition of a familiar object found in an unfamiliar place (see Magen et al., Eur J Neurosci 35:870-882, 2012; Magen and Chesselet, J Parkinson's Disease 1:217-227, 2011). A Discrimination Index (DI)=(tnovel−tfamiliar)/(tnovel+tfamiliar) was used to assess the time spent exploring near the object in a novel place (“tnovel”) vs. the total exploration time overall. Discrimination Index scores greater than zero are considered to indicate good place recognition memory.
Three groups of mice, with at least 13 mice in each group, are given a cognitive acuity test at 7 months. The three groups of mice are: “High Dose” Group (150 mg/kg/day of compound 2), “Low Dose” (50 mg/kg/day of compound 2) Group, and a Control Group (no compound 2).
The dosage results are substantially lower than doses previously observed to effectively promote GCase chaperoning activity in mice (e.g., Migdalska-Richards et al., Ann Neurol 80:766-775, 2016).

Which results are given for [2H]C([2H])(N[C@H]1CC[C@H](O)CC1)c1cc(Br)cc(Br)c1N [ZW-001]?
half-life at 1 μM [1]: 1.65 h; microsomal CLint at 1 μM [1]: 7 µL/min/mg

For Nc1c(Br)cc(Br)cc1CN[C@H]1CC[C@H](O)CC1 [ambroxol, trans-4-((2-amino-3,5-dibromobenzyl)amino)cyclohexanol], which half-life at 1 μM [1] is on record?
The half-life at 1 μM was 1.01 h.

What about the microsomal CLint at 1 μM [1] of the same molecule?
Its microsomal CLint at 1 μM is 11.4 µL/min/mg.

And the Lifespan (male BDF1 mice; starting at 2 months of age)?
Its Lifespan is “able to increase lifespan”.

What about the “Healthspan (health of surviving animals when sacrificed)” value (male BDF1 mice) of the same molecule?
The value was “healthspan was extended”.

And the “Cognitive acuity, Low Dose Group” value (mice; 50 mg/kg/day)?
The value was “results in between the Control Group and the “High Dose” Group”.

What about the “Cognitive acuity, High Dose Group” value (mice; 150 mg/kg/day) of the same molecule?
The value was “best cognitive acuity results”.

What about the Cognitive acuity (mice; High Dose and Low Dose vs Control (FIG. 4)) of the same molecule?
The Cognitive acuity was “dose-related improvement”.
